{"source": "patent US10874685B2", "about": "“Pancreatic cancer therapy and diagnosis” (Deutsches Krebsforschungszentrum Stiftung des Öffentlichen …, priority 2014, dated 2020)", "key": {"[1]": {"test_system": "pancreatic cancer cell lines (PANC-1, CFPAC-1, CAPAN-1, MIAPaCa-2, BXPC-3)", "assay": "Sulforhodamine B (SRB) cytotoxicity assay on pancreatic cancer cell lines", "format": "cell-based, human", "settings": "increasing concentration, 72 h", "experimental": "PANC-1, CFPAC-1, CAPAN-1, MIAPaCa-2, BXPC-3 and fibroblast cells were seeded for 24 h and were exposed to increasing concentration of Pimozide and vehicle for 72 h (FIG. 3A). The same procedure was followed for treatment of cancer cell lines with L741 (FIG. 3B). Cell viability was characterized using a SRB assay. Values are the mean+/−SD of six independent experiments.\nFive pancreatic ductal cancer cell lines with various degree of differentiation were obtained from American Type Culture Collection (Rockville, USA) and Normal Human Dermal Fibroblasts (NHDF) obtained from PromoCell. BXPC-3 (moderately differentiated) as well as poorly differentiated human pancreatic cancer cell lines, PANC-1 and MIAPaCa-2, have been established from primary tumor. AsPC-1, CAPAN-1 and CFPAC-1 which represent well differentiated cell lines was isolated from ascites and liver metastasis of pancreas adenocarcinoma. All cell lines contain mutation in P53 whereas K-ras mutation reported in all with the exception of BxPc3. BRCA2 mutation just reported in CAPAN-1 cells.\nSulforhodamine B sodium salt (sigma) was used to assess cell viability and IC50 determination of pancreatic cancer cells. […] Cell viability was specified by using plate reader (TECAN) with measuring of absorbance at 570 and 650 nm (background) in treated or untreated 96 well plate."}, "PANC-1 cells": {"test_system": "PANC-1 cells", "assay": "Wound healing (scratching) assay for cell migration", "format": "cell-based, human", "settings": "PANC-1, increasing concentrations, 10 h", "experimental": "PANC-1 cells were plated in the chamber were already attached in 12 well plate and allowed to grow for 24 h. Then, a wound was made in the confluent monolayer by removing the chamber. Cells were exposed to increasing concentration of Pimozide (FIG. 6A) or L741 (FIG. 6B) and vehicle for 10 h. Wound gap closure was measured for each drug concentration by comparing the gap at time 0 h to the one at the time 10 h when the gap closed in negative control and normalized to untreated condition.\nPANC-1 cells were seeded into the 35 mm-dish culture-silicon Insert frames from Ibidi where already attached to the 6 well culture plate. When 96-98% confluency was achieved, the insert frames were removed using sterile forceps to reach cell free gap. To create a reference point for subsequent measurements, three different part of the gap was marked on the underside of the plastic. Floating cells and cell debris were washed using PBS, relative culture medium was added to each wells and migration distance was photographed using a Zeiss Axiovert 24 light microscope at zero time in the marked areas. Afterward, the wells were treated by addition of DMSO as control and different increasing concentration of Pim and L741. Plates were then placed into the incubator and the cells were allowed to migrate until the time when the gap for the […] closed (t time). Images were taken from the marked areas again. This assay was performed employing various concentrations of drugs at which maximum 5% viability inhibition was observed after 10 h treatment."}, "[2]": {"test_system": "KPC-023, KPC-01 and KPC-LM pancreatic cancer cell lines", "assay": "Viability of primary and metastatic pancreatic cancer cell lines isolated from KPC mice", "format": "cell-based", "settings": "primary (KPC-023, KPC-01) and metastatic (KPC-LM) lines"}, "pituitary tumor cells": {"test_system": "pituitary tumor cells", "settings": "after treatment; cited from earlier work"}, "MIAPaCa-2 xenograft": {"test_system": "MIAPaCa-2 xenograft", "assay": "Combination therapy in NSG mice, MIAPaCa-2 xenograft model", "format": "in vivo", "settings": "i.p. 16 days; pimozide 10 mg/kg daily; gemcitabine 20 mg/kg every 4 days", "description": "Tumor volumes normalized to initial measurement shown in the y-axis every four days following treatment with either vehicle (gray line), the chemotherapeutic gemcitabine (green line), a combination therapy of 2-deoxy-D-glucose, atorvastatin and pimozide (2DG+ATR+Pim, redline), or a combination therapy of 2DG+ATR+Pim and gemcitabine (2DG+ATR+Pim+Gem, red dashed line) (FIG. 12A). […] Tumor weight (FIG. 12C) and volume of samples (FIG. 12D) harvested following treatment with, from left to right, control (Vehicle), 2DG+ATR, Pim alone, Pim+2DG+ATR, Gem alone, 2DG+ATR+Gem, Pim+Gem, or Pim+2DG+ATR+Gem.\nNOD severe combined immunodeficiency gamma (NSG) mice were subcutaneously injected in the right flank with five million MIAPaCa-2 cells. Once tumors were detectable (200 mm^3), mice were randomized into 8 groups (5 in each group) and treated through intraperitoneal injection as indicated for 16 days. All drugs were given every day whereas gemcitabine was given every 4 days, alone or in combination. Experiment was terminated when control animals became moribund. The growth of tumors was measured every 4 days. Tumors were harvested and photographed. Tumor weights and volumes were measured.\nThe efficacy of the combined treatment approach was investigated using a MIAPaCa-2 xenograft model of pancreatic cancer."}, "[3]": {"test_system": "locally advanced, unresectable, or metastatic pancreatic adenocarcinoma", "settings": "patients with locally advanced; cited from earlier work"}, "MIAPaCa-2 cells": {"test_system": "MIAPaCa-2 cells", "assay": "Orthotopic pancreatic tumor mouse model treated with DRD2 antagonists", "format": "in vivo, mice", "settings": "compared to vehicle", "experimental": "Two million MIAPaCa-2 cells were resuspended in 10 μL Matrigel (BD Biosciences, San Jose, Calif.) were orthotopically implanted into the tail of the pancreas of 6-week-old Nod scid gamma animals (Jackson Labs, Bar Harbor, Me.) (day 1). When tumors were palpable (day 27), mice were randomized into 2 groups (n=7 in control group and n=9 in haloperidol group) and injected intraperitoneally with either haloperidol (10 mg/kg) or solvent (dimethylsulfoxide [DMSO] control group) for 12 days. The experiment was terminated when control mice appeared moribund. Weight of the animal and final tumor weight and volume were measured."}, "[4]": {"test_system": "MIAPaCa-2, PANC-1 and AsPC-1 cells", "assay": "Glucose uptake measurement (labelled 2-DG) in PDAC cell lines", "format": "cell-based, human", "settings": "all three cell lines; relative to DMSO control", "excerpt": "(§1) Measurement of 2-deoxy-D-glucose uptake shown on the y-axis relative to control by PDAC cell lines (MIAPaCa2, left; PANC-1, middle; AsPC1, right) treated with DMSO (C), pimozide (P) or haloperidol (H) (FIG. 10A). Abundance of free cholesterol, as measured by staining with filipin, after treatment with haloperidol (H) or pimozide (P) in PDAC cell lines (MIAPaCa2, left; PANC-1, middle; AsPC1, right) (FIG. 10B top). Representative micrographs of filipin-labelled cholesterol. PDAC (MIAPaCa2, top; PANC-1, middle; AsPC1, bottom) cells were seeded for 24 hours and treated with 10 μM haloperidol (H) or pimozide (P) or DMSO for 18 hours (FIG. 10B bottom). Red-fluorescence represents propidium iodide (PI)-stained nuclei and blue-fluorescence represents filipin-stained cholesterol. mRNA levels of genes relative to R-actin shown on the y-axis involved in cholesterol biosynthesis (from left to right: SREBP1, SREBP2, INSIG1, HMGCR, LDLR) measured by qRT-PCR 18 hours post-treatment with DMSO (C), haloperidol (H) or pimozide (P) in three PDAC cell lines (MIAPaCa2, top; PANC-1, middle; AsPC1, bottom) (FIG. 10C).\nThe induction effect of pimozide or haloperidol on labeled 2-DG uptake in cancer cells were determined from measurement of the fluorescence intensity of cell lysates. […]"}, "[5]": {"test_system": "MIAPaCa-2, PANC-1 and AsPC-1 cells", "assay": "Free cholesterol measurement (Filipin staining) in PDAC cell lines", "format": "cell-based, human", "settings": "10 μM, 18 hours; vs DMSO", "excerpt": "as §1\nCancer cells were seeded for 24 hours and treated with pimozide, haloperidol or DMSO for 18 hours. The cells were fixed with paraformaldehyde, stained with Filipin™ and propidium iodide (PI), and photographed. Filipin™ is a fluorescent polyene antibiotic that binds to free cholesterol. […]"}, "[6]": {"test_system": "SREBP1, SREBP2, INSIG1, HMGCR, LDLR mRNA", "assay": "qRT-PCR of cholesterol biosynthesis genes in PDAC cell lines", "format": "cell-based, human", "settings": "qRT-PCR 18 hours post-treatment; relative to actin", "excerpt": "as §1\nFor mice xenograft tissue samples and cultured cells, the miRNeasy kit (Qiagen, Valencia, Calif.) was used to extract total RNA. […] Quantification values were calculated according to a standard curve method created from a dilution series. […]"}, "[7]": {"test_system": "PANC-1, MIAPaCa-2 and AsPC-1 cell lines", "assay": "PDAC cell line growth curves under combination therapy", "format": "cell-based, human", "settings": "over time", "excerpt": "FIGS. 11A and 11B show PDAC cell line growth curves following combination therapy with DRD2 antagonists, 2-deoxy-D-glucose, and atorvastatin. Percentage cell growth shown on the y-axis following treatment with control (blue line), pimozide (Pim, gray line), atorvastatin and 2-deoxy-D-glucose (ATR+2-DG, red line) and combination of Pim and ATR+2-DG (green line) over time in PANC-1 (top), MIAPaCa-2 (middle) and AsPC-1 (bottom) cell lines (FIG. 11A). Haloperidol (Hal, gray line) is used as the DRD2 antagonist for use alone or in combination with ATR+2-DG as described in A (FIG. 11B). Dosage are indicated for each cell line.\nPDAC cell proliferation was measured during pharmacological inhibition of DRD2 alone and in combination with blockade of glycolysis and cholesterol synthesis. To suppress glycolysis, 2-DG, a glucose analog which is a competitor inhibitor of glucose metabolism, was used. To inhibit cholesterol synthesis, atorvastatin (ATR), a competitive inhibitor of 3-hydroxy-3-methylglutaryl-coenzyme A (HMG-CoA) reductase in the cholesterol biosynthesis pathway was used."}}, "note": "Entries after “also recorded” stand apart in the source; their conditions may differ.", "data": [{"compound": "OC1(c2ccc(Cl)cc2)CCN(Cc2c[nH]c3ccccc23)CC1", "note": "[L-741,626]", "values": [{"measurement": "cell viability of pancreatic cancer cell lines", "setting": "[1]", "value": "Specific toxicity effect; also recorded: dose dependent toxicity effect"}, {"measurement": "tumor cell migration (wound gap closure)", "setting": "PANC-1 cells", "value": "tumor cell migration was affected"}, {"measurement": "tumor cell migration (wound gap closure)", "setting": "PANC-1 cells; listed as L741", "value": "dose dependent inhibitory effect"}, {"measurement": "viability of KPC mouse pancreatic cancer cell lines", "setting": "[2]", "value": "sensitive; also recorded: Dose-dependent effects"}]}, {"compound": "NCCc1ccc(O)c(O)c1", "note": "[dopamine]", "values": [{"measurement": "cancer cell viability", "setting": "pituitary tumor cells", "value": "decreased significantly"}]}, {"compound": "Nc1ccn([C@@H]2O[C@H](CO)[C@@H](O)C2(F)F)c(=O)n1", "note": "[gemcitabine, 4-amino-1-[(2R,4R,5R)-3,3-difluoro-4-hydroxy-5-(hydroxymethyl)oxolan-2-yl]pyrimidin-2-one]", "values": [{"measurement": "tumor volume", "setting": "MIAPaCa-2 xenograft", "value": "reduced tumor weight and volume"}, {"measurement": "tumor weight", "setting": "MIAPaCa-2 xenograft", "value": "reduced tumor weight"}, {"measurement": "1-year survival rate", "setting": "[3]", "value": 21, "unit": "%"}, {"measurement": "median overall survival (OS)", "setting": "[3]", "value": 6, "unit": "months"}]}, {"compound": "O=C(CCCN1CCC(O)(c2ccc(Cl)cc2)CC1)c1ccc(F)cc1", "note": "[haloperidol]", "values": [{"measurement": "metastatic dissemination", "setting": "MIAPaCa-2 cells", "value": "reduces tumor volume, metastasis"}, {"measurement": "tumor volume", "setting": "MIAPaCa-2 cells; haloperidol 10 mg/kg intraperitoneally for 12 days", "value": "reduces tumor volume"}, {"measurement": "viability of KPC mouse pancreatic cancer cell lines", "setting": "[2]", "value": "sensitive; also recorded: Dose-dependent effects"}, {"measurement": "glucose uptake (intracellular labelled 2-deoxy-D-glucose)", "setting": "[4]", "value": "elevated uptake of glucose; also recorded: enhanced glucose and cholesterol uptake"}, {"measurement": "abundance of free cholesterol (Filipin staining)", "setting": "[5]", "value": "increased the abundance of free cholesterol; also recorded: enhanced glucose and cholesterol uptake"}, {"measurement": "expression of genes involved in lipogenesis / cholesterol biosynthesis", "setting": "[6]", "value": "inducing expression of genes involved in lipogenesis"}, {"measurement": "cell growth", "setting": "[7]", "value": "reduced cell growth"}]}]}
